Where two headings read alike, the source gives them in different places. No end group written: not given here.
Legend:
[1] = target: allosteric site on the α7 nicotinic-receptor (Rattus norvegicus, UniProt Q05941); experiment: Binding affinity for the allosteric site of the α7 nicotinic-receptor, using tests for viability
[2] = Sulforhodamine B (SRB) cell viability assay; format: cell-based; conditions: 10 μM, 1 hour, PC12; read-out: cell viability, peptide alone
Procedure: (§1) Wild-type PC12 cell were provided by Sigma-Aldrich (St. Louis, MO). The culture was routinely plated in 100 mm dishes (Corning) coated with collagen (2 μg/cm^2) and maintained in growth medium with Minimum Essential Medium Eagle (MEM) supplemented with heat-inactivated 10% horse serum (HS) and 5% foetal bovine serum (FBS), 10 mM HEPES, 2 mM L-Glutamine and 1:400 Penicillin/streptomycin solution. Cells were maintained at 37° C. in a humidified atmosphere 5% CO2 and the medium was replaced every 2 days. For splitting, cells were dislodged from the dish using a pipette with medium, with a portion of these replated onto new cultured dishes. Cells were used between passages 12 and 25.
(§2) The cell viability assay used was the sulforhodamine B (SRB) colorimetric assay for toxicity screening. The day before of the experiment cells were seeded onto collagen-coated 96-well plates in a concentration of 40,000 cells/well. Cell concentration was determined by the Fuchs-Rosenthal chamber. […] After treatment, medium was replaced and cells were fixed by adding 100 μl of 10% Trichloroacetic Acid (TCA) for 1 h at 4° C. Thereafter, cells were washed with H2O and stained with 100 μl of a 0.057% SRB solution in 1% Acetic acid (HAc) for 30 minutes at room temperature. After staining cells were washed with 1% HAc for removing the excess of SRB and then incubated with 200 μl of 10 mM Tris base (pH 10.5) and shake it for 5 minutes to solubilise the protein-bound dye. Measurement of the absorbance took place in a VMax Kinetic Microplate Reader (Molecular Devices) at 490 nm.

[3] = target: T1, α7nAChR (the α7 nicotinic acetylcholine receptor), allosteric site (Rattus norvegicus, UniProt Q05941); experiment: [3H] Ivermectin binding assay on PC12 cell membranes
T1 construct: [3H]; host or cells: wild-type PC12 cells
T1 sequence (Q05941 23-502): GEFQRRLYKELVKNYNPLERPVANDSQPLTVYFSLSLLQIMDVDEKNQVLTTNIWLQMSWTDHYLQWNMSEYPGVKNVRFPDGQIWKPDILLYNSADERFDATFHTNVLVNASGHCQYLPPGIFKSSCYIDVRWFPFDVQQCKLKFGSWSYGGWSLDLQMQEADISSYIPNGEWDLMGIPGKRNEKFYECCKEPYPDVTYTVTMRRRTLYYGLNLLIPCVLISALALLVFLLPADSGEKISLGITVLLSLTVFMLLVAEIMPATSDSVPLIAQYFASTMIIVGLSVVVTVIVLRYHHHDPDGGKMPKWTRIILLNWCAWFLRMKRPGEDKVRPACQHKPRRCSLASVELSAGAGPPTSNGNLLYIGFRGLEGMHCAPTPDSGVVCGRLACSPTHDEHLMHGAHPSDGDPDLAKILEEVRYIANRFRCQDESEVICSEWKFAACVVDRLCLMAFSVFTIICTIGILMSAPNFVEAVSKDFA
Procedure: PC12 membranes where obtained to perform binding assays. PC12 cells were grown until confluence on 100 mm plates. Growth medium was removed and ice-cold 50 mM Tris-HCl buffer (pH 7.4) containing 4.5 μg/μ1 aprotinin and 0.1 mM phenylmethylsulphonylfluoride (PMSF) were added. Cells were mechanically detached and pelleted by centrifugation (1040×g) for 4 minutes at 4° C. Pellets were homogenized with a Polytron and centrifuged (13000×g) for 20 minutes at 4° C. The pellets were resuspended in fresh buffer and incubated at 37° C. for 10 minutes to remove endogenous neurotransmitters. The samples were subsequently re-centrifuged. The final pellet was resuspended in buffer and the protein concentration determined using the Bradford Reagent (Sigma-Aldrich, St. Louis, MO). The cell membrane preparation was stored at −80° C.
For the binding with PC12 membranes, each incubation was performed in polystyrene tube (VWR International Ltd; Leicestershire, UK) containing 0.25 ml of membranes diluted in Tris-HCl 50 mM buffer (containing 50 μg of PC12 membranes) with 5 nM [3H] […] Thereafter, samples were filtered through Brandel GB glass fibre filters (MD, USA); pre-soaked in 0.5% polyethylenemine by a Harvester (Brandel; MD, USA). Tubes were washed 3 times with ice cold 50 mM Tris-HCl buffer. Radioactivity in the tubes was counted by scintillation spectrometry using a 300 SL Liquid scintillation counter (Lablogic Systems Limited, UK). Specific binding was determined by subtracting the non-specific (cells treated with Ivermectin 30 μM) value to all the tubes.

[4] = tested on: PC12 cells; experiment: Sulforhodamine B (SRB) cell viability assay; format: cell-based
Procedure: as §1, §2

[5] = cited from earlier work

allosteric site on the α7 nicotinic-receptor, sequence (Q05941 23-502): as above

Compound	binding affinity for the allosteric site on the α7 nicotinic-receptor [1]	viability at 10 µM [2] [%]	% [3H] Ivermectin binding (Mean ± SEM) ([3]; 1 nM competitor, Table 1) [%]	% [3H] Ivermectin binding (Mean ± SEM) ([3]; 10 nM competitor, Table 1) [%]	% [3H] Ivermectin binding (Mean ± SEM) ([3]; 100 nM competitor, Table 1) [%]	% [3H] Ivermectin binding (Mean ± SEM) ([3]; 1 μM competitor, Table 1) [%]	% [3H] Ivermectin binding (Mean ± SEM) ([3]; 5 μM competitor, Table 1) [%]	binding affinity for the allosteric site on the α7 nicotinic-receptor ([1]; listed as galanthamine) [µM]	affinity (Table 3 feature) ([1]; ✓ = Dream Drug feature 'Nanomolar affinity')	dose that blocks β-Amyloid (Table 3 feature) ([4]; 'high doses')	minimum effective concentration against β-Amyloid (10 μM) on cell viability ([4]; PC12, FIG. 8) [nM]	% [3H] Ivermectin binding (Mean ± SEM) ([3]; 100 nM competitor, Table 2, N = 6) [%]	% [3H] Ivermectin binding (Mean ± SEM) ([3]; 200 nM competitor, Table 2) [%]	% [3H] Ivermectin binding (Mean ± SEM) ([3]; 500 nM competitor, Table 2) [%]	% [3H] Ivermectin binding (Mean ± SEM) ([3]; 700 nM competitor, Table 2) [%]	% [3H] Ivermectin binding (Mean ± SEM) ([3]; 1 μM competitor, Table 2) [%]	% [3H] Ivermectin binding (Mean ± SEM) ([3]; 2 μM competitor, Table 2) [%]	bioavailability periphery (Table 3 feature) [5]
AEFHRWSSYMVHWK [T14]	0.005 µM	83 ± 5.38	100 ± 9.91	90.92 ± 2.38	88.92 ± 3.82	85.17 ± 3.03	85.36 ± 3.96											
COc1ccc2c3c1O[C@H]1C[C@@H](O)C=C[C@@]31CCN(C)C2 [Galanthamine]	low affinity							10	Micromolar affinity	doses (0.1 μM)	100	100.00 ± 11.48	97.86 ± 1.40	90.96 ± 1.87	69.68 ± 9.87	67.17 ± 6.64	66.32 ± 4.29	High bioavailability

— patent publication US12139729B2, “Neurodegenerative disorders” (priority 2013, dated 2024)
